Assay results as given in ChEMBL document CHEMBL1144262, “Identification of putative metabolites of docosahexaenoic acid as potent PPARgamma agonists and antidiabetic agents” (Bioorg Med Chem Lett, 2005).

Key:
[1] = In vivo body weight gain was observed in db/db mouse 4 weeks after oral administration (once daily) of 100 mg/kg of compound; (n=6); format: ADME, organism-based; design: dose 100 mg/kg, route oral; settings: 672 h
[2] = In vivo triglyceride level was observed in db/db mouse 4 weeks after oral administration (once daily) of 100 mg/kg of compound; (n=6); format: ADME, organism-based; design: dose 100 mg/kg, route oral; settings: 672 h
[3] = In vivo blood glucose level was observed in db/db mouse 4 weeks after oral administration (once daily) of 100 mg/kg of compound; (n=6); format: ADME, organism-based; design: dose 100 mg/kg, route oral; settings: 672 h
[4] = In vivo body weight gain was observed in ZDF rats 2 weeks after oral administration (once daily) of 30 mg/kg of compound; (n=6); settings: rat, 336 h
[5] = In vivo triglyceride level was observed in ZDF rats 2 weeks after oral administration (once daily) of 30 mg/kg of compound; (n=6); settings: rat, 336 h
[6] = In vivo blood glucose level was observed in ZDF rats 2 weeks after oral administration (once daily) of 30 mg/kg of compound; (n=6); settings: rat, 336 h

Structure (SMILES): CCc1ccc(CCOc2ccc(CC3SC(=O)NC3=O)cc2)nc1 (stereo unspecified) [PIOGLITAZONE]
- Activity [1]: 15.5 g
- Triglyceride level [2]: 73 mg/dL
- Glucose level [3]: 432 mg/dL
- Activity [4]: 96.6 g
- Triglyceride level [5]: 109 mg/dL
- Glucose level [6]: 174 mg/dL
